From ChEMBL document CHEMBL2385071, “Synthesis and biological investigation of coumarin piperazine (piperidine) derivatives as potential multireceptor atypical antipsychotics” (J Med Chem, 2013)

Tests used:
[1] = target: 5-hydroxytryptamine receptor 2A (Rattus norvegicus, UniProt P14842); experiment: Displacement of [3H]ketanserin from 5HT2A receptor in rat cerebral cortex after 15 mins by liquid scintillation counting analysis; assay type: tissue-based
[2] = target: T1, Adrenergic receptor alpha-2 (Rattus norvegicus, UniProt P22086+P19328+P22909)
T1 sequence (P22086 whole entry): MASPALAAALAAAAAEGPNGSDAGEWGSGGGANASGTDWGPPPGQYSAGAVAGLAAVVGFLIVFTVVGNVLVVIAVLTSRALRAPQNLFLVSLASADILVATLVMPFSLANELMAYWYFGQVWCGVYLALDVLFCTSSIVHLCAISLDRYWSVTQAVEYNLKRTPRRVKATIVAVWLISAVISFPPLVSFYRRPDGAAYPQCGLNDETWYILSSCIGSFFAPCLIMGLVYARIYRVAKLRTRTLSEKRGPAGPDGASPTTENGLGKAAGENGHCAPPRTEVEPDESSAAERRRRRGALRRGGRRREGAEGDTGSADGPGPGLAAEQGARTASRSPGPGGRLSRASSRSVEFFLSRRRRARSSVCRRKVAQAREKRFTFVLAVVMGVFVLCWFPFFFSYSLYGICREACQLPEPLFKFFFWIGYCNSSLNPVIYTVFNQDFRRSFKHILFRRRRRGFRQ
T1 sequence (P19328 whole entry): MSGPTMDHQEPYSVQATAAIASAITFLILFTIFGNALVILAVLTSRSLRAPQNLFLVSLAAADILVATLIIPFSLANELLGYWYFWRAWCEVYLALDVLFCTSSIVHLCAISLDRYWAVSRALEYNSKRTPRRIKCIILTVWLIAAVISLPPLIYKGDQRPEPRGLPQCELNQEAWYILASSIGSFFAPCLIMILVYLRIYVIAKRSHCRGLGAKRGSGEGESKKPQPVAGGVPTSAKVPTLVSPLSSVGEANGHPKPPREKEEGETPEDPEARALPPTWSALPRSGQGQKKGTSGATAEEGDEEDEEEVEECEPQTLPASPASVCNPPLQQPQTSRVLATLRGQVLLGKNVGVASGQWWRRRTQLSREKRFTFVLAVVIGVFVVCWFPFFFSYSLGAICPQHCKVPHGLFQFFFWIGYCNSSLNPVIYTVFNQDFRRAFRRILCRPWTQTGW
T1 sequence (P22909 whole entry): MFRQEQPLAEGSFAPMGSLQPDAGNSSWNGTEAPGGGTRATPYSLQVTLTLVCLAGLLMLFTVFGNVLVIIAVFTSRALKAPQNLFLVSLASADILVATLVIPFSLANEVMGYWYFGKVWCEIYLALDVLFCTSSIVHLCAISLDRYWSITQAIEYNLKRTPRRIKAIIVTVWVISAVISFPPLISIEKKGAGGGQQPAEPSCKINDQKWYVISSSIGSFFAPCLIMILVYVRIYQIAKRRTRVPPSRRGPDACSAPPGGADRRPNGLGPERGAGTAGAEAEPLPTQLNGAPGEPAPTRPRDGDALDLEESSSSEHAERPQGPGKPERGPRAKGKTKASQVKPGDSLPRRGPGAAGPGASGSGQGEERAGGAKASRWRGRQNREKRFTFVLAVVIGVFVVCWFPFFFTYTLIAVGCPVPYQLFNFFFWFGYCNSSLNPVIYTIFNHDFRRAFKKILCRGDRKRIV
Description: Displacement of [3H]rauwolscine from alpha-2 adrenergic receptor in rat cerebral cortex after 60 mins by liquid scintillation counting analysis

D(3) dopamine receptor [3] = target: D(3) dopamine receptor (Rattus norvegicus, UniProt P19020); experiment: biochemical
Chain of D(3) dopamine receptor (Rattus norvegicus, UniProt P19020) (P19020 whole entry): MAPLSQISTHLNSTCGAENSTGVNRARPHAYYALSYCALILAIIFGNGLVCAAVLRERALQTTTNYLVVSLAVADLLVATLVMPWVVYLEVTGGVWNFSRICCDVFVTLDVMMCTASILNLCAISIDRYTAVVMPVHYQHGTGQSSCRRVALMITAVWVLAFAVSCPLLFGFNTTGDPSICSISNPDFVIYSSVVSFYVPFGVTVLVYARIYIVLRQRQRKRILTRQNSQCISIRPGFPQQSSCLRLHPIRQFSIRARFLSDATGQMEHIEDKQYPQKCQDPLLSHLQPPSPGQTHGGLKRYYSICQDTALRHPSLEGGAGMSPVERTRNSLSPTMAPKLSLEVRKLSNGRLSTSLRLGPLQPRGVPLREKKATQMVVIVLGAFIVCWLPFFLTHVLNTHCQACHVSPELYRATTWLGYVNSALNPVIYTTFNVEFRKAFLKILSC

[4] = AUC (0 to infinity) in rat at 12 mg/kg, po by HPLC-MS analysis; assay type: ADME, organism-based; set-up: time infinity, dose 12 mg/kg, route oral; conditions: plasma
[5] = Half life in rat at 12 mg/kg, po by HPLC-MS analysis; assay type: ADME, organism-based; set-up: dose 12 mg/kg, route oral; conditions: in vivo
[6] = Cmax in rat at 12 mg/kg, po by HPLC-MS analysis; assay type: ADME, organism-based; set-up: dose 12 mg/kg, route oral; conditions: in vivo
[7] = Tmax in rat at 12 mg/kg, po by HPLC-MS analysis; assay type: ADME, organism-based; set-up: dose 12 mg/kg, route oral; conditions: in vivo
Mus musculus [8] = experiment: Toxicity in po dosed mouse assessed as induction of catalepsy; assay type: organism-based; conditions: in vivo
Mus musculus [9] = experiment: Toxicity in mouse assessed as effect on serum prolactin level at 0.3 to 2.7 mg/kg, po for 28 days measured 180 mins after last treatment by enzyme immunoassay; assay type: organism-based; set-up: dose 0.3-2.7 mg/kg, route oral; conditions: in vivo, 3 h
Mus musculus [10] = experiment: Toxicity in mouse assessed as weight gain at 0.3 to 2.7 mg/kg, po for 28 days; assay type: organism-based; set-up: dose 0.3-2.7 mg/kg, route oral; conditions: in vivo, 672 h
[11] = Acute toxicity in mouse assessed as mortality after 24 hrs; assay type: organism-based; conditions: in vivo
[12] = target: T2, 5-hydroxytryptamine receptor 2A (Homo sapiens, UniProt P28223); experiment: Agonist activity at 5HT2A receptor (unknown origin) expressed in CHOK1 cells coexpressing Galpha15 at 10 uM by FLIPR assay relative to control; assay type: cell-based; conditions: CHO-K1
T2 sequence (P28223 whole entry): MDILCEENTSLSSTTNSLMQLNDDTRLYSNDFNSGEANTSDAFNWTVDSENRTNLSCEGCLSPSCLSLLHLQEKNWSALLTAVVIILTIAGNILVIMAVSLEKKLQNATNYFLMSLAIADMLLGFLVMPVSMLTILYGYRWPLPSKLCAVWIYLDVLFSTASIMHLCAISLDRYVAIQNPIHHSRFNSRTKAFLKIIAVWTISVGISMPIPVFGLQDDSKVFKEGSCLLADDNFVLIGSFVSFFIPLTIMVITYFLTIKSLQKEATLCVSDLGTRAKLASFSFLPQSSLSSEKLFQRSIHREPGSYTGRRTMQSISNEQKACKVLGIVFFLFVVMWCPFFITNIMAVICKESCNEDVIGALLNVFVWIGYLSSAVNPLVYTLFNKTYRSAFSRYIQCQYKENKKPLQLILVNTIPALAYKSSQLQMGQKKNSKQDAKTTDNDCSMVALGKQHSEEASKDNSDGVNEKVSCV

[13] = target: T3, 5-hydroxytryptamine receptor 1A (Homo sapiens) (UniProt P08908); experiment: Agonist activity at 5HT1A receptor (unknown origin) expressed in CHOK1 cells coexpressing Galpha15 at 10 uM by FLIPR assay relative to control; assay type: cell-based; conditions: CHO-K1
T3 sequence (whole entry): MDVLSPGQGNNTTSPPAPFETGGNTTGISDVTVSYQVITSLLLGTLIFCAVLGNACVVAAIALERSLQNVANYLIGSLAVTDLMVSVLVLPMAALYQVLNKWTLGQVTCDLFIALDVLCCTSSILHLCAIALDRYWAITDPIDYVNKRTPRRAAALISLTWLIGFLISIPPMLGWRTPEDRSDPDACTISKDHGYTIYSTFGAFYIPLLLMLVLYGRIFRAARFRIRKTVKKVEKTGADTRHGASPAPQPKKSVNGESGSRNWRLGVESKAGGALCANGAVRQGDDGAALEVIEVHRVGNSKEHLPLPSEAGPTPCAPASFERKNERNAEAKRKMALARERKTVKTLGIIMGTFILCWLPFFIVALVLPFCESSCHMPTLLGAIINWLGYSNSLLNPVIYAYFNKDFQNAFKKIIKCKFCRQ

D(2) dopamine receptor = D(2) dopamine receptor (Homo sapiens, UniProt P14416); experiment: Agonist activity at dopamine D2 receptor (unknown origin) expressed in CHOK1 cells coexpressing Galpha15 at 10 uM by FLIPR assay relative to control; assay type: cell-based; conditions: CHO-K1
Chain of D(2) dopamine receptor (P14416 whole entry): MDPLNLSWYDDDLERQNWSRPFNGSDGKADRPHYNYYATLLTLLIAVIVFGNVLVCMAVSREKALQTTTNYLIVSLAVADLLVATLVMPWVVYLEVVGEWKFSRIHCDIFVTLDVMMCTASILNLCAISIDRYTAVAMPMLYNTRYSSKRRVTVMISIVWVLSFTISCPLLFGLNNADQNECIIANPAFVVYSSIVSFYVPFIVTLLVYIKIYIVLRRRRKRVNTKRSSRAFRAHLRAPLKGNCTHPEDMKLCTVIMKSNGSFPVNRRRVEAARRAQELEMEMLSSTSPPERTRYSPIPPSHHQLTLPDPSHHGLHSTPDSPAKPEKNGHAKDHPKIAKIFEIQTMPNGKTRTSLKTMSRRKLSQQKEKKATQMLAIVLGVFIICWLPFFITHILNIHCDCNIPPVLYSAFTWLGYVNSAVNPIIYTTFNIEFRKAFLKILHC

[14] = target: T2, 5-hydroxytryptamine receptor 2A
Description: Antagonist activity at 5HT2A receptor (unknown origin) expressed in CHOK1 cells coexpressing Galpha15 assessed as inhibition of agonist-induced response incubated for 60 mins in incubator followed by 15 mins at room temperature by FLIPR assay

[15] = target: T4, 5-hydroxytryptamine receptor 1A (Homo sapiens, UniProt P08908)
T4 sequence (P08908 whole entry): T3 sequence (whole entry)
Description: Antagonist activity at 5HT1A receptor (unknown origin) expressed in CHOK1 cells coexpressing Galpha15 assessed as inhibition of agonist-induced response incubated for 60 mins in incubator followed by 15 mins at room temperature by FLIPR assay

D(3) dopamine receptor [16] = target: D(3) dopamine receptor (Homo sapiens, UniProt P35462)
Chain of D(3) dopamine receptor (Homo sapiens, UniProt P35462) (P35462 whole entry): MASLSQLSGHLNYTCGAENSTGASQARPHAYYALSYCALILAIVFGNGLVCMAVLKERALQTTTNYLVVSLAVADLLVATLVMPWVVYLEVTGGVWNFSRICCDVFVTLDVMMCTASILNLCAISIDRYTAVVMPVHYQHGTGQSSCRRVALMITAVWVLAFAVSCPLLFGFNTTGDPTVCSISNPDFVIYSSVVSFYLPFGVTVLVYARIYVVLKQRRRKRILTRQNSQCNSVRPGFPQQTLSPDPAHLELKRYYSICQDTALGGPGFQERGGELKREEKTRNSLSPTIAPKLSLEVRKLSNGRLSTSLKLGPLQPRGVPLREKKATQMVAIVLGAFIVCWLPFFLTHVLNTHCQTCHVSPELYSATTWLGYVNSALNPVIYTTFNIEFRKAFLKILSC

[17] = target: Voltage-gated inwardly rectifying potassium channel KCNH2 (Homo sapiens, UniProt Q12809)
Chain of Voltage-gated inwardly rectifying potassium channel KCNH2 (Q12809 whole entry): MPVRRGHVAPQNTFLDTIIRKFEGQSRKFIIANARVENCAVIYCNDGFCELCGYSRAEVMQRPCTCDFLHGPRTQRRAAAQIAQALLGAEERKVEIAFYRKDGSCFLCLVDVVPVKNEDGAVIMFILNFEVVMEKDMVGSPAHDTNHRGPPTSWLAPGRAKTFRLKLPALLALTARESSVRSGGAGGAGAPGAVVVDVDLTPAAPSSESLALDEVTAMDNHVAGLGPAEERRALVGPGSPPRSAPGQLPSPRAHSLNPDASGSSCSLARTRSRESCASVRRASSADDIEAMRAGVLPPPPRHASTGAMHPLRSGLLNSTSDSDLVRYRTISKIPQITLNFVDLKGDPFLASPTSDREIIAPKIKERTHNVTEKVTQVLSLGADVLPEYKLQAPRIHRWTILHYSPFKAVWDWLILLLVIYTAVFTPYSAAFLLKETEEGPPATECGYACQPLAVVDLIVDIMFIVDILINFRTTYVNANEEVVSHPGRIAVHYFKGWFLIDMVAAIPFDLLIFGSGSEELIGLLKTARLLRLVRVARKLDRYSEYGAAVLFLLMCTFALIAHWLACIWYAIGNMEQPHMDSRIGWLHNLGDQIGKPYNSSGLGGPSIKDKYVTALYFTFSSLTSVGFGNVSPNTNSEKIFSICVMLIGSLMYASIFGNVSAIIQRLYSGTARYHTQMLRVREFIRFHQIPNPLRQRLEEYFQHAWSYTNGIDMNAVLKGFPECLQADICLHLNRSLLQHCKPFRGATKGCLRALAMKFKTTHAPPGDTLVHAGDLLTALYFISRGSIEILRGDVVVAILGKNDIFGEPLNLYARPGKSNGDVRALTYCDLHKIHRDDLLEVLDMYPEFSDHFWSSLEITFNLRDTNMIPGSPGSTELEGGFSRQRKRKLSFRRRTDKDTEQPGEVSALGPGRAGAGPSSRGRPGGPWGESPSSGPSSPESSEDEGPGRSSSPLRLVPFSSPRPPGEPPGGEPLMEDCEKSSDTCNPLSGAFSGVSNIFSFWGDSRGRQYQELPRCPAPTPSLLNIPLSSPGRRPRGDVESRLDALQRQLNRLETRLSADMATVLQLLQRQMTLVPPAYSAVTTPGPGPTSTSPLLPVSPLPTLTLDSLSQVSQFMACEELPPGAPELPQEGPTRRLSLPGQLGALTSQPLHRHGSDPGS
Description: Inhibition of human ERG expressed in HEK293 cells by electrophysiology assay

in vivo = conditions: mouse, po
Description: Therapeutic Index, ratio of ED50 for catalepsy in mouse to ED50 for antipsychotic activity in po dosed mouse assessed as reduction in apomorphine-induced climbing behavior

Mus musculus [18] = organism: Mus musculus; experiment: animal or person; conditions: po
Description: Antipsychotic activity in po dosed mouse assessed as reduction in apomorphine-induced climbing behavior administered for 30 mins prior to apomorphine-challenge measured at 10 to 30 mins post-dose

Mus musculus [19] = tested on: Mus musculus

Chain of 5-hydroxytryptamine receptor 2A (Rattus norvegicus, UniProt P14842) (P14842 whole entry): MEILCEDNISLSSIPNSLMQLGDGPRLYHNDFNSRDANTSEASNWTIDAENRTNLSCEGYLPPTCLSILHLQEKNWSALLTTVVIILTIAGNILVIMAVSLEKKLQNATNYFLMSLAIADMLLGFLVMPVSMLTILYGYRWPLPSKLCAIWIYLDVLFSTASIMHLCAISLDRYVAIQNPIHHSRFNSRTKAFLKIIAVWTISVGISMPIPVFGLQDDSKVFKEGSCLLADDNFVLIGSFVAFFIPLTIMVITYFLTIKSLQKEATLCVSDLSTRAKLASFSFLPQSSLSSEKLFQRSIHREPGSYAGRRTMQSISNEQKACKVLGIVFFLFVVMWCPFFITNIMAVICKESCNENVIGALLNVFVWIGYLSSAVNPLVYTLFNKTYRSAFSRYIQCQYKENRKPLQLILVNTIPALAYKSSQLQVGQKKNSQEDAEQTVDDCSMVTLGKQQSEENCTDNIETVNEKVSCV

In the case of `O=c1cc(-c2ccccc2)c2ccc(OCCCCN3CCC(c4noc5cc(F)ccc45)CC3)cc2o1`, the Ki [1] is reported as 9.2 nM, the Ki [2] is reported as 46.9 nM and the Ki (D(3) dopamine receptor [3]) is reported as 72.7 nM.
Work on `Cc1cc(=O)oc2c(Cl)c(OCCCCN3CCC(c4noc5cc(F)ccc45)CC3)ccc12` yielded an AUC(0-inf) [4] of 703 ng·h/mL, a half-life [5] of 6.7 h and a Cmax [6] of 72.1 ng/mL. The Tmax [7] was 3 h, the ED50 (Mus musculus [8]) was 70.85 mg/kg and the Activity (Mus musculus [9]) was “Non-toxic”. For the same molecule, the Activity (Mus musculus [10]) was “Non-toxic”, the LD50 at 24 h [11] was greater than 2000 mg/kg and the Activity [12] was 10%. It also gave an Activity [13] of 9.9%, an Activity (D(2) dopamine receptor) of 2% and a Ki [1] of 0.3 nM. It also gave an IC50 [14] of 39.2 nM, an IC50 [15] of 11.8 nM and an IC50 (D(3) dopamine receptor [16]) of 24.8 nM. For the same molecule, the IC50 [17] was 1590 nM, the Ki [2] was 15.6 nM and the selectivity ratio (in vivo) was 215. The Ki (D(3) dopamine receptor [3]) was 4.3 nM, the ED50 (Mus musculus [18]) was 0.14 mg/kg and the Activity (Mus musculus [19]) was “Dose-dependent effect”.
In the case of `Cc1cc(=O)oc2cc(OCCCCN3CCC(c4noc5cc(F)ccc45)CC3)ccc12`, the Ki [1] is reported as 8.4 nM, the IC50 [17] is reported as 159 nM and the Ki [2] is reported as 159.6 nM. For the same molecule, the Ki (D(3) dopamine receptor [3]) was 71.3 nM.
`Cc1cc(=O)oc2c(C)c(OCCCCN3CCC(c4noc5cc(F)ccc45)CC3)ccc12` gave a Ki [1] of 0.9 nM, an IC50 [17] of 226 nM and a Ki [2] of 598.6 nM. For the same molecule, the Ki (D(3) dopamine receptor [3]) was 13.6 nM.
For `COc1ccccc1N1CCN(CCCCOc2ccc3c(C)cc(=O)oc3c2)CC1`, the Ki [1] was 8 nM, the IC50 [17] was 31 nM and the Ki [2] was 86.9 nM. The Ki (D(3) dopamine receptor [3]) was 4.8 nM.
For `Cc1c(C)c2ccc(OCCCCN3CCC(c4noc5cc(F)ccc45)CC3)cc2oc1=O`, the Ki [1] was 0.3 nM, the IC50 [17] was 195 nM and the Ki [2] was 124.3 nM. For the same molecule, the Ki (D(3) dopamine receptor [3]) was 30.6 nM.
